Results from US20250002524A1, “CAP ANALOGS HAVING AN ACYCLIC LINKER TO THE GUANINE DERIVATIVE NUCLEOBASE” (CureVac SE, priority 2021, published 2025).
Read-outs that look alike come from different tables or passages of the source.

Biological target: T1, T7 RNA polymerase (Escherichia phage T7, UniProt P00573)
T1 construct: purchased Thermo Fisher Scientific
Type: biochemical
From the text: A DNA sequence was introduced into a modified pUC19 derived vector backbone to comprise a 5′-UTR with a ribozyme cleavage site (the HSD17B4 5′ UTR), a 3′-UTR, a histone-stem-loop structure and a stretch of adenine nucleotides (A100), at the 3′-terminal end. The obtained plasmid DNA was transformed and propagated in bacteria using common protocols and plasmid DNA was extracted, purified, and enzymatically linearized using a restriction enzyme. The obtained linearized plasmid DNA was used for RNA in vitro transcription as outlined next to obtain the mRNA with the sequence shown in SEQ ID NO: 1.
Linearized plasmid DNA template (50 μg/ml) was transcribed at 37° C. for 3-5 hours in 80 mM HEPES/KOH, pH 7.5, 24 mM MgCl2, 2 mM spermidine, 40 mM DTT, 5 U/ml pyrophosphatase (Thermo Fisher Scientific), 200 U/ml RiboLock RNase inhibitor (Thermo Fisher Scientific), 5000 U/ml T7 RNA polymerase (Thermo Fisher Scientific).
The non-modified and modified nucleotide mixture was sequence-optimized (herein referred to as sequence-optimized IVT-mix) preferably in accordance with a procedure as described in WO2015/188933. Example 1. In short, the sequence-optimized IVT-mix comprised the four ribonucleoside triphosphates (NTPs) GTP, ATP, CTP and (modified) UTP in a sequence optimized ratio, wherein the fraction of each of the four ribonucleoside triphosphates in the sequence-optimized IVT-mix corresponded to the fraction of the respective nucleotide in the mRNA molecule to be synthetized, a buffer, a DNA template, and an RNA polymerase. Accordingly, for mRNAs i) and ii) as set out above, the concentrations of the nucleotides were 0.42 mM ATP, 0.57 mM CTP, 0.28 mM UTP, and 0.5 mM GTP (all Thermo Fisher Scientific).
Following RNA in vitro transcription, linear DNA templates were removed by Pulmozyme (Ratiopharm) (2500 U/ml, 3.2 mM CaCl2, 30 min at 37° C.). The obtained mRNAs i) and ii) as well as the mRNAs used in example 3, Table Ex-6; example 4, Table Ex-7; and example 5, FIG. 5 were purified using RP-HPLC (PureMessenger®; according to WO2008/077592). The obtained mRNAs used in example 3, Table Ex-8; example 4, Table Ex-9; and example 5, FIG. 6, were purified using Monarch RNA cleanup kit or Qiagen RNeasy mini kit according to the protocol of the manufacturer and used for dsRNA determination, capping analysis and in vitro expression experiments (example 5).
The capping efficacy can be analyzed by an HPLC assay of a 5′ fragment of mRNAs obtained according to the protocol of example 2. Thus, the peaks obtained in such an HPLC assay are indicative of i) correctly capped mRNA, ii) capped mRNA lacking a single nucleotide G (which is a typical side product if T7 RNA-polymerase is used), iii) uncapped mRNA and iv) further products of unknown structure. 5′ fragments for this kind of analysis are typically 15 to 20 nucleotides in length.
In order to provide fragments of a length of 18 nucleotides (assuming that the Cap-nucleotide is present, the fragment is 18 nucleotides long; for uncapped mRNAs, the fragment is accordingly 17 nucleotides long) for HPLC analysis, the mRNAs i) and ii) obtained in example 2 were first cleaved at the above-mentioned 5′ ribozyme cleavage site using a ribozyme designed to cleave at the relevant position. The ribozyme reaction contained 150 μM of the respective mRNA, 150 μM of the ribozyme, 50 mM NaCl and 0.625 mM EDTA in a total reaction volume of 120 μL. For the annealing reaction, the mixture was incubated in a PCR cycler for 3 min at 95° C., followed by a cool down ramp of 0.1° C. per second to a final temperature of 25° C., with a final incubation of 10 min at 25° C. After addition of 30 μL of a 200 mM MgCl2 solution buffered with 250 mM TRIS/HCl (pH 7.5), the reaction mix was incubated at 25° C. for 1 h. The reaction was stopped by addition of 24 μL of a 250 mM EDTA solution. RNA-only and Ribozyme-only controls were prepared per RNA and ribozyme, respectively.

[1] = Table Ex-6, mRNA capped with named cap analog (2.0 mM cap, 0.5 mM GTP), RP-HPLC purified mRNA
[2] = Table Ex-8, mRNA capped with 15.23 mM cap0 analog, N1-Methyl-pseudouridine, purified with Monarch RNA cleanup kit or Qiagen RNeasy mini kit

T1 sequence (P00573 whole entry): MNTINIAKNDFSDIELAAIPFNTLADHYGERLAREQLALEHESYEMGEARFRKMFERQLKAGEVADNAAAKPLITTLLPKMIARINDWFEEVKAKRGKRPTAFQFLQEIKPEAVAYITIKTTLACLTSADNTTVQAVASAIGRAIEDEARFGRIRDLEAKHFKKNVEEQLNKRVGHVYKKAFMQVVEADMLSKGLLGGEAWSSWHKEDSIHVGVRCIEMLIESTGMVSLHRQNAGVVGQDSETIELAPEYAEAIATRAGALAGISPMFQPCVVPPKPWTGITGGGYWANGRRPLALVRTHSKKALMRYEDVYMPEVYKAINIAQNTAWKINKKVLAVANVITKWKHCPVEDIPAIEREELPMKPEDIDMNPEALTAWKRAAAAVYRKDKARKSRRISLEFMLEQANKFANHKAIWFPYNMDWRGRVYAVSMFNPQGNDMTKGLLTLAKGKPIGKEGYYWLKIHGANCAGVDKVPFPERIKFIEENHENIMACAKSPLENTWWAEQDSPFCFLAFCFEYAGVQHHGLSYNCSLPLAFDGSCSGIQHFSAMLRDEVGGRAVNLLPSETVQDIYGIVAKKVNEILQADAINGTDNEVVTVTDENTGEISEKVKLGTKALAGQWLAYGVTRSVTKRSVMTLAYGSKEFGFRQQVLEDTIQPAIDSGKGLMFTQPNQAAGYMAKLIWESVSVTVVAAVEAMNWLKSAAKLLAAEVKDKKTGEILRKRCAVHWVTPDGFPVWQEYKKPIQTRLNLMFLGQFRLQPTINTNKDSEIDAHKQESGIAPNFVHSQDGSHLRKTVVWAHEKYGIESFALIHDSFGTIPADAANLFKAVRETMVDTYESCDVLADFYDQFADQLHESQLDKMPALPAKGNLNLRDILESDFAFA

| SMILES | Relative peak area Capped RNA minus G [1] [%] | Relative peak area Uncapped RNA [1] [%] | Relative peak area Unidentified peaks [1] [%] | Relative peak area Correctly capped RNA (Table Ex-6, mRNA capped with named cap analog (2.0 mM cap, 0.5 mM GTP), RP-HPLC purified mRNA, 5′ fragment, UV 260 nm) [%] | Relative peak area Capped RNA minus G [2] [%] | Relative peak area Correctly capped RNA [2] [%] | Relative peak area Uncapped RNA [2] [%] | Relative peak area Unidentified peaks [2] [%] |
| --- | --- | --- | --- | --- | --- | --- | --- | --- |
| C[n+]1cn(C2OC(COP(=O)(O)OP(=O)([O-])OP(=O)(O)OCC3OC(n4cnc5c(=O)[nH]c(N)nc54)C(O)C3O)C(O)C2O)c2nc(N)[nH]c(=O)c21 (stereo not drawn) [mCap, m7G(5′)ppp(5′)G, reference compound] | 8.6 | 19.8 | 10.1 | 61.5 | 12.2 | 63.3 | 20.3 | 4.2 |
| C[n+]1cn(CC[S+]([O-])CCP(=O)(O)OP(=O)([O-])OP(=O)(O)OC[C@H]2O[C@@H](n3cnc4c(=O)[nH]c(N)nc43)[C@H](O)[C@@H]2O)c2nc(N)[nH]c(=O)c21 (stereo partly drawn) [Phosphonate Variant 5] |  |  |  |  | 4.3 | 77.1 | 13.1 | 5.5 |
| C[n+]1cn(CCSCP(=O)(O)OP(=O)([O-])OP(=O)(O)OC[C@H]2O[C@@H](n3cnc4c(=O)[nH]c(N)nc43)[C@H](O)[C@@H]2O)c2nc(N)[nH]c(=O)c21 [Phosphonate Variant 10] |  |  |  |  | 23.4 | 63.0 | 8.7 | 4.9 |
| C[n+]1cn(CCCS(=O)(=O)CCP(=O)(O)OP(=O)([O-])OP(=O)(O)OC[C@H]2O[C@@H](n3cnc4c(=O)[nH]c(N)nc43)[C@H](O)[C@@H]2O)c2nc(N)[nH]c(=O)c21 [Phosphonate Variant 9] |  |  |  |  | 4.4 | 73.4 | 15.7 | 6.5 |
| C[n+]1cn(CCCOP(=O)(O)OP(=O)([O-])OP(=O)(O)OC[C@H]2O[C@@H](n3cnc4c(=O)[nH]c(N)nc43)[C@H](O)[C@@H]2O)c2nc(N)[nH]c(=O)c21 [Propylene Cap] |  |  |  |  | 21.6 | 64.7 | 12.3 | 1.4 |
| C[n+]1cn(CCS(=O)(=O)CCP(=O)(O)OP(=O)([O-])OP(=O)(O)OC[C@H]2O[C@@H](n3cnc4c(=O)[nH]c(N)nc43)[C@H](O)[C@@H]2O)c2nc(N)[nH]c(=O)c21 [Phosphonate Variant 6] |  |  |  |  | 4.2 | 75.5 | 14.9 | 5.4 |
| C[n+]1cn(CCS(=O)(=O)CP(=O)(O)OP(=O)([O-])OP(=O)(O)OC[C@H]2O[C@@H](n3cnc4c(=O)[nH]c(N)nc43)[C@H](O)[C@@H]2O)c2nc(N)[nH]c(=O)c21 [Phosphonate Variant 12] |  |  |  |  | 8.6 | 75.5 | 12.2 | 3.7 |
| C[n+]1cn(C[S+]([O-])CCCP(=O)(O)OP(=O)([O-])OP(=O)(O)OC[C@H]2O[C@@H](n3cnc4c(=O)[nH]c(N)nc43)[C@H](O)[C@@H]2O)c2nc(N)[nH]c(=O)c21 (stereo partly drawn) [Phosphonate Variant 2] |  |  |  |  | 6.3 | 76.9 | 15.0 | 1.8 |
